Laboratory results reported in US9834534B2, “Neuraminidase inhibitor compounds, compositions and methods for the use thereof in anti-viral treatments” (THE UNIVERSITY OF BRITISH COLUMBIA, priority 2009, dated 2017).

Experiments:
[1] = tested on: Auckland pH1N1 E119K; assay type: cell-based, influenza A virus; conditions: pH 1
[2] = tested on: Fukui H3N2 E119V; assay type: cell-based, influenza A virus
[3] = tested on: B/Perth D197E; assay type: cell-based, influenza B virus; conditions: read-out: sensitivity to inhibitors, B/Perth D197E
[4] = tested on: sH1N1/01 H274Y; assay type: cell-based, influenza A virus; conditions: read-out: IC50 sH1N/01 H274Y
[5] = tested on: Sol Isl sH1N1 E119A; assay type: cell-based, influenza A virus
[6] = tested on: B/Florida E119D (B/Florida/4/2006 mutant 1 E117D); assay type: cell-based, influenza B virus
[7] = tested on: sH1N1/08 H274Y; assay type: cell-based, influenza A virus

SMILES	IC50 [1]	IC50 [2]	IC50 [3]	IC50 [4]	IC50 [5]	IC50 [6]	IC50 [7]
CC(=O)NC1C(NC(=N)N)C(F)C(F)(C(=O)O)OC1[C@H](O)[C@H](O)CO (stereo partly drawn) [4-G3Feq diF SA, 5-Acetamido-2,4,5-trideoxy-2α, 3β-difluoro-4-guanidino-α-D-erythro-L-gluco-nonulopyranosonate]	[…]	2400 nM	8 nM	43.5 nM	–	–	–
CC(=O)N[C@@H]1C(NC(=N)N)C(F)[C@](F)(C(=O)O)OC1[C@H](O)[C@H](O)CO (stereo partly drawn) [Compound 12, (2R,3R)-4-Guanyl-2,4-dideoxy-2,3-difluorosialic acid]	[…]	998000 nM	162 nM	217 nM	[…]	–	–
CCOC(=O)C1=C[C@@H](OC(CC)CC)[C@H](NC(C)=O)[C@@H](N)C1 [Oseltamivir]	147 nM	260000 nM	–	2440 nM	419 nM	1200 nM	2000 nM
CC(=O)N[C@H]1[C@H]([C@H](O)[C@H](O)CO)OC(C(=O)O)=C[C@@H]1N=C(N)N [Zanamivir, reference compound]	> 100000 nM	3400 nM	258 nM	–	> 10000 nM	> 10000 nM	2 nM
